Measurements published in PubChem BioAssay AID1963830 (Molecular Pharmacology Branch, DTP, NCI, 2024).

Tested on: 922993-354-T-J3-PDC complex spheroid viability
Test: Anticancer human tumor 922993-354-T-J3-PDC patient-derived endometrial carcinoma cell line growth inhibition [POLQ]
Conditions: for IC50: curve of first compound; for viability, T/C: stronger effect = lower value
Method: Multicellular complex tumor spheroid response to Polymerase (POL) inhibitors (novobiocin, ART-558, RP6685) in combination with a variety of drugs and investigational agents in selected tumor cell lines
The POL inhibitors (novobiocin, ART-558, and RP6685) were evaluated both individually and in combination with standard of care and investigational anticancer small molecules within a complex spheroid model of solid tumors. . Complex spheroids include a stromal component modeled by human endothelial cells (HUVEC) and fibroblasts modeled by human mesenchymal stem cells (MSCs). The concentration ranges selected for each drug and investigational agent were based upon clinically achievable concentrations if the clinical Cmax of the agent was known.
Compounds. The drugs and investigational agents: novobiocin (NSC847541), ART-558 (NSC835418), RP-6685 (NSC848927), peposertib (NSC802822), ceralasertib (NSC780249), elimusertib (NSC800525), camonsertib (NSC841442), AZD-1390 (NSC803789), olaparib (NSC753686), talazoparib (NSC767125), rucaparib (NSC756644), sotorasib (NSC818433), MRTX-1133 (NSC836407), SN-38 (NSC673596), topotecan (NSC609699), epotoside (NSC141540), doxorubicin (NSC123127), gemcitabine (NSC613327), 5-fluorouracil (NSC19893), paclitaxel (NSC125973), vemurafenib (NSC761431), MSA-2 (NSC828583), SN-011 (NSC837082), adavosertib (NSC754352), prexasertib (NSC758257), carboplatin (NSC241240) and oxaliplatin (NSC266046), were obtained from the National Cancer Institute (NCI) Developmental Therapeutics Program Chemical Repository (21). The FDA-approved anticancer drug set is available from the Developmental Therapeutics Program at https://dtp.cancer.gov/organization/dscb/obtaining/. […] The stock solutions were prepared in dimethyl sulfoxide (DMSO, Sigma-Aldrich, St. Louis, MO, cat. D2650), except for the platinum compounds which were prepared in saline (Quality Biological, Gaithersburg, MD, cat. 114-055-101), at 800-fold the tested concentration and stored at -70 degrees C prior to their use. All drugs and investigational agents were tested over a range starting from a high concentration at or near the clinical Cmax and decreasing in half-log increments. If the clinical Cmax for an agent had not been determined, the highest concentration tested was 10 microM, except for SN-38, which was tested at a high concentration of 1 microM.
Cell Culture. All cells were maintained in an incubator at 37 degrees C and 5% CO2 with 95% humidity. The PDC lines were cultured according to standard operating procedures established by the NCI PDMR (https://pdmr.cancer.gov). Table 3 of the manuscript, lists the cell lines along with the number of the three cell types plated to form the mct-spheroids and media for tumor cell growth. After thawing, all PDC lines, except 997537-175-T-J1-PDC and 415267-285-R-J2-PDC, were cultured in Matrigel-coated flasks prepared with a working solution of 1X Ham's F-12 nutrient mix, without supplementation (Thermo Fisher Scientific, cat. 11765054), 100 U/mL penicillin-streptomycin (Thermo Fisher Scientific, cat. 15140122), and 2.5% Matrigel (Corning Inc., Corning, NY, cat. 354248) for the first three passages. The two PDC lines 997537-175-T-J1-PDC and 415267-285-R-J2-PDC were cultured on uncoated flasks. The 857933-349-R-J2-PDC line was cultured in 6C/Colon 1B media containing advanced DMEM/F-12 (Thermo Fisher Scientific, cat. 12634028), 10 mM HEPES (Thermo Fisher Scientific, cat. 15630080), 1X GlutaMAX supplement (Thermo Fisher Scientific, cat. 35050061), 0.1 mg/mL primocin (InvivoGen, San Diego, CA, cat. ant-pm-2), 10% defined fetal bovine serum, heat inactivated (HyClone Laboratories Inc., Logan, UT, cat. SH30070.03HI), 50% L-WRN conditioned media (ATCC, cat. CRL-3276), 1.25 mM N-Acetyl-L-cysteine (Sigma-Aldrich, cat. A9165), 10 mM nicotinamide (Sigma-Aldrich, cat. N0636), 1X B-27 supplement (Thermo Fisher Scientific, cat. 17504044), 1X N-2 supplement (Thermo Fisher Scientific, cat. […]

[1] = second compound 0.0316 µM, first compound 0.0316 µM
[2] = second compound 0.0316 µM, first compound 0.1 µM
[3] = second compound 0.0316 µM, first compound 0.316 µM
[4] = second compound 0.0316 µM, first compound 1 µM
[5] = second compound 0.0316 µM, first compound 3.16 µM
[6] = second compound 0.0316 µM, first compound 10 µM
[7] = second compound 0.1 µM, first compound 0.0316 µM
[8] = second compound 0.1 µM, first compound 0.1 µM
[9] = second compound 0.1 µM, first compound 0.316 µM
[10] = second compound 0.1 µM, first compound 1 µM
[11] = second compound 0.1 µM, first compound 3.16 µM
[12] = second compound 0.1 µM, first compound 10 µM
[13] = second compound 0.316 µM, first compound 0.0316 µM
[14] = second compound 0.316 µM, first compound 0.1 µM
[15] = second compound 0.316 µM, first compound 0.316 µM
[16] = second compound 0.316 µM, first compound 1 µM
[17] = second compound 0.316 µM, first compound 3.16 µM
[18] = second compound 0.316 µM, first compound 10 µM
[19] = second compound 1 µM, first compound 0.0316 µM
[20] = second compound 1 µM, first compound 0.1 µM
[21] = second compound 1 µM, first compound 0.316 µM
[22] = second compound 1 µM, first compound 1 µM
[23] = second compound 1 µM, first compound 3.16 µM
[24] = second compound 1 µM, first compound 10 µM
[25] = second compound 3.16 µM, first compound 0.0316 µM
[26] = second compound 3.16 µM, first compound 0.1 µM
[27] = second compound 3.16 µM, first compound 0.316 µM
[28] = second compound 3.16 µM, first compound 1 µM
[29] = second compound 3.16 µM, first compound 3.16 µM
[30] = second compound 3.16 µM, first compound 10 µM
[31] = second compound 10 µM, first compound 0.0316 µM
[32] = second compound 10 µM, first compound 0.1 µM
[33] = second compound 10 µM, first compound 0.316 µM
[34] = second compound 10 µM, first compound 1 µM
[35] = second compound 10 µM, first compound 3.16 µM
[36] = second compound 10 µM, first compound 10 µM
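Also: spheroids exposed to the agents for one week.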
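For viability, T/C in this document: 100% = DMSO vehicle control wells.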

For CC1COCCN1c1cc(C2(O)CC3CCC(C2)O3)c2cnn(-c3ccn[nH]3)c2n1 (centres undefined) + Cc1cccc(N(C)C(=O)C2C(O)CCN2c2nc(C)cc(C(F)(F)F)c2C#N)c1, the IC50 (second compound 0.0316 µM) was 0.439 µM, the IC50 (second compound 0.1 µM) was 0.457 µM and the IC50 (second compound 0.316 µM) was 0.58 µM. For the same compound, the IC50 (second compound 1 µM) was 0.51 µM, the IC50 (second compound 3.16 µM) was 0.39 µM and the IC50 (second compound 10 µM) was 0.166 µM. The viability, T/C [1] was 104%, the viability, T/C [2] was 77% and the viability, T/C [3] was 61.6%. It also gave a viability, T/C [4] of 33.6%, a viability, T/C [5] of 10.6% and a viability, T/C [6] of 8.67%. The viability, T/C [7] was 109%, the viability, T/C [8] was 93.7% and the viability, T/C [9] was 63.9%. The viability, T/C [10] was 23.2%, the viability, T/C [11] was 10.3% and the viability, T/C [12] was 10.8%. The viability, T/C [13] was 110%, the viability, T/C [14] was 101% and the viability, T/C [15] was 75.5%. For the same compound, the viability, T/C [16] was 27.5%, the viability, T/C [17] was 11.6% and the viability, T/C [18] was 10.9%. The viability, T/C [19] was 97.3%, the viability, T/C [20] was 89.5% and the viability, T/C [21] was 67.9%. For the same compound, the viability, T/C [22] was 25.8%, the viability, T/C [23] was 9.46% and the viability, T/C [24] was 10.4%. For the same compound, the viability, T/C [25] was 101%, the viability, T/C [26] was 89.2% and the viability, T/C [27] was 57.1%. The viability, T/C [28] was 20.7%, the viability, T/C [29] was 8.74% and the viability, T/C [30] was 9.75%. It also gave a viability, T/C [31] of 101%, a viability, T/C [32] of 64.6% and a viability, T/C [33] of 32.5%. For the same compound, the viability, T/C [34] was 10.3%, the viability, T/C [35] was 8.71% and the viability, T/C [36] was 9.69%.

Compound COc1cc(C2c3cc4c(cc3C(OC3OC5COC(C)OC5C(O)C3O)C3COC(=O)C23)OCO4)cc(OC)c1O (centres undefined) + COC1C(OC(N)=O)C(O)C(Oc2ccc3c(O)c(NC(=O)c4ccc(O)c(CC=C(C)C)c4)c(=O)oc3c2C)OC1(C)C has an IC50 (second compound 0.0316 µM) of 5.98 µM, an IC50 (second compound 0.1 µM) of 7.74 µM and an IC50 (second compound 0.316 µM) of 8.38 µM. The IC50 (second compound 1 µM) was 7 µM, the IC50 (second compound 3.16 µM) was 7.13 µM and the IC50 (second compound 10 µM) was 7.81 µM. It also gave a viability, T/C [1] of 98%, a viability, T/C [2] of 91% and a viability, T/C [3] of 100%. The viability, T/C [4] was 98.6%, the viability, T/C [5] was 74.1% and the viability, T/C [6] was 30.7%. For the same compound, the viability, T/C [7] was 99.7%, the viability, T/C [8] was 89.4% and the viability, T/C [9] was 93.9%. The viability, T/C [10] was 88.3%, the viability, T/C [11] was 72.9% and the viability, T/C [12] was 43.2%. The viability, T/C [13] was 107%, the viability, T/C [14] was 97.7% and the viability, T/C [15] was 106%. For the same compound, the viability, T/C [16] was 90%, the viability, T/C [17] was 69.6% and the viability, T/C [18] was 46.4%. The viability, T/C [19] was 96.2%, the viability, T/C [20] was 93.8% and the viability, T/C [21] was 91.9%. The viability, T/C [22] was 89.2%, the viability, T/C [23] was 72.9% and the viability, T/C [24] was 39.5%. The viability, T/C [25] was 99.7%, the viability, T/C [26] was 97.7% and the viability, T/C [27] was 89.2%. It also gave a viability, T/C [28] of 88.6%, a viability, T/C [29] of 81.8% and a viability, T/C [30] of 37.1%. For the same compound, the viability, T/C [31] was 72.1%, the viability, T/C [32] was 84.5% and the viability, T/C [33] was 89.4%. The viability, T/C [34] was 76.1%, the viability, T/C [35] was 85.1% and the viability, T/C [36] was 41.6%.
